Results as given in US20260355212A1 (priority 2022, published 2026).
Where two headings read alike, the source gives them in different places.

Assays:
SARS-CoV-2 Mpro = SARS-CoV-2 Mpro (Severe acute respiratory syndrome coronavirus 2, UniProt P0DTD1); experiment: SARS-CoV-2 Mpro enzymatic inhibition assay (fluorescence); assay type: biochemical
How it was run: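 A fluorescence readout (340 nm excitation, 490 nm emission) was taken after the substrate reaction ran 60 min at 30° C. Before substrate addition, E. coli-expressed protease and compound (3-fold dilutions, 10 doses, duplicates) sat together 30 min at room temperature. Percent inhibition was fitted by variable-slope nonlinear regression to give IC50.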

HCoV-229E Mpro = HCoV-229E Mpro (Human coronavirus 229E, UniProt P0C6X1); experiment: HCoV-229E Mpro enzymatic inhibition assay (fluorescence); assay type: biochemical
Sequence of HCoV-229E Mpro (P0C6X1 2966-3267 limits assumed): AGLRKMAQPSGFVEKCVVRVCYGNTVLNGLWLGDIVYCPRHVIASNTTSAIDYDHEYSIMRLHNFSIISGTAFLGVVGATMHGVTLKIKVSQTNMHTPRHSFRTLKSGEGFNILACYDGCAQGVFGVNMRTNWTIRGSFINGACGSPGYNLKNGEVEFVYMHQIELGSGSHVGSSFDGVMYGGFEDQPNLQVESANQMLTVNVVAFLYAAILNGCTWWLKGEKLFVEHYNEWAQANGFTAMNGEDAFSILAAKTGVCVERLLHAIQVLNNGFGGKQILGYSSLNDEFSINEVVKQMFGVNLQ
Method: (§1) The hCoV Mpro are cloned, expressed in E. coli and purified by WuXi AppTec Co., Ltd. The substrate are synthesized by Genscript Biotech.
(§2) Compounds are 3 fold serially diluted for 10 doses and added to an assay plate (384w format) using ECHO, in duplicate wells. The test concentration of test compounds is defined by sponsor. […] For no inhibition control (ZPE, zero percent effect), DMSO is added.
(§3) 25 μL of Mpro proteins are added to the assay plates containing compounds, respectively, using Multidrop. The compounds and Mpro proteins are pre-incubated at room temperature for 30 min. Then 5 µL of Mpro substrates are added to the related assay plates, respectively. Each activity testing point has a relevant background control to normalize the fluorescence interference of compound.
(§4) After 60 min incubation at 30° C., the fluorescence signal (RFU) is detected using a microplate reader M2e (SpectraMax) at Ex/Em=340 nm/490 nm.
(§5) The inhibition activity is calculated using the formula below, IC50 values will be calculated using the Inhibition % data.
(§6) Inhibition %=[(CPD−BGCPD)−(ZPE−BGZPE)/(HPE−BGHPE)−(ZPE−BGZPE)]×[…] • CPD: Signal of test compounds wells, containing compound+enzyme+substrate. • ZPE: Average of signals of zero percent effective control wells, containing enzyme+substrate, no compound. • HPE: Average of signals of hundred percent effect control wells, containing GC376+enzyme+substrate. • BG: Compound background control wells, containing compound+substrate, no enzyme
(§7) IC50 values of compounds are calculated with the GraphPad Prism software using the nonlinear regression model of log(inhibitor) vs. response—Variable slope (four parameters).

HCoV-HKU1 Mpro = HCoV-HKU1 Mpro (Human coronavirus HKU1, UniProt P0C6X2); experiment: HCoV-HKU1 Mpro enzymatic inhibition assay (fluorescence); assay type: biochemical
Sequence of HCoV-HKU1 Mpro (P0C6X2 3335-3637 limits assumed): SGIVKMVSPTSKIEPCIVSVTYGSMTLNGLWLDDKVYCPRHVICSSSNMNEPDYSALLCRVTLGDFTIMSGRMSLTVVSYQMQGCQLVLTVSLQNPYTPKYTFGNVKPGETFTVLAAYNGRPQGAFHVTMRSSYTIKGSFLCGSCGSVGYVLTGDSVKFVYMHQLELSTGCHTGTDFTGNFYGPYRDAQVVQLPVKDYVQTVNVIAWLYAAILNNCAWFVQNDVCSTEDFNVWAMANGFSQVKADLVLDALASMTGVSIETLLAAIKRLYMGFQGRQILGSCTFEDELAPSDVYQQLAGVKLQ
Method: as §1, §2, §3, §4, §5, §6, §7

MERS Mpro = MERS Mpro (Middle East respiratory syndrome-related coronavirus, UniProt K9N7C7); experiment: biochemical; parameters: species or system MERS-CoV
Sequence of MERS Mpro (K9N7C7 3248-3553 limits assumed): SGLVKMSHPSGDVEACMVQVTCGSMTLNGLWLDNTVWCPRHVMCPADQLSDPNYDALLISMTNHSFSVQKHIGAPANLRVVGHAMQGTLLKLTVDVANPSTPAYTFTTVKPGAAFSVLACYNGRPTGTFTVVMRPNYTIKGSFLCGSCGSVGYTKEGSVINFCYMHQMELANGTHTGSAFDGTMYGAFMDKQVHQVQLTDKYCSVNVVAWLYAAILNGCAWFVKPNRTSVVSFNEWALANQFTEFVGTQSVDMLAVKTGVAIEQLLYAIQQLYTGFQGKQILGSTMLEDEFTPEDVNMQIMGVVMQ

HCoV-NL63 Mpro = HCoV-NL63 Mpro (Human coronavirus NL63, UniProt P0C6X5); experiment: HCoV-NL63 Mpro enzymatic inhibition assay (fluorescence); assay type: biochemical
Sequence of HCoV-NL63 Mpro (P0C6X5 2940-3242 limits assumed): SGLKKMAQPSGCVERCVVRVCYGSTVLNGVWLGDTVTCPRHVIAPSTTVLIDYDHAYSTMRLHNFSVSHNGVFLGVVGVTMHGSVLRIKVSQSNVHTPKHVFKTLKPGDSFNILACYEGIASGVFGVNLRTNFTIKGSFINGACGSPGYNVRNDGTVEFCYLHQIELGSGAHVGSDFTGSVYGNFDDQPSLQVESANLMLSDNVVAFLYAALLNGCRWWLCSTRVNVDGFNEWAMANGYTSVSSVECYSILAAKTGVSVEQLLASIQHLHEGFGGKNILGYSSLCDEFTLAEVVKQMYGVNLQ
Method: as §1, §2, §3, §4, §5, §6, §7

HCoV-OC43 Mpro = HCoV-OC43 Mpro (Human coronavirus OC43, UniProt P0C6X6); experiment: HCoV-OC43 Mpro enzymatic inhibition assay (fluorescence); assay type: biochemical
Sequence of HCoV-OC43 Mpro (P0C6X6 3247-3549 limits assumed): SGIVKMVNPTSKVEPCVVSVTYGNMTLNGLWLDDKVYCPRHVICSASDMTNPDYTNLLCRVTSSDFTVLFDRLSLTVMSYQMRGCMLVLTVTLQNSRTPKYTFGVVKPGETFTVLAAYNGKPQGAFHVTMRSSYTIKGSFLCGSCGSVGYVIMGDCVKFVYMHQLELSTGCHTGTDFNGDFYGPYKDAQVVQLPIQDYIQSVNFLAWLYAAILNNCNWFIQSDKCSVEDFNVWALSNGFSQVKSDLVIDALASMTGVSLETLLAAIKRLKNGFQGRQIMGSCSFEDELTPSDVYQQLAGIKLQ
Method: as §1, §2, §3, §4, §5, §6, §7

SARS-CoV-1 Mpro = SARS-CoV-1 Mpro (Severe acute respiratory syndrome coronavirus, UniProt P0C6X7); experiment: biochemical

Compound | IC50 (SARS-CoV-2 Mpro) [nM] | IC50 (HCoV-229E Mpro) [nM] | IC50 (HCoV-HKU1 Mpro) [nM] | IC50 (MERS Mpro) [nM] | IC50 (HCoV-NL63 Mpro) [nM] | IC50 (HCoV-OC43 Mpro) [nM] | IC50 (SARS-CoV-1 Mpro) [nM] | IC50 (SARS-CoV-2 Mpro; mean, 25 nM protein, 25 μM substrate, 30 min pre-incubation, 60 min at 30° C., read-out: Mpro_SARS-CoV-2 mean IC50) [nM]
Cc1ccc2cc(C(=O)N3C[C@H]4[C@@H]([C@H]3C(=O)N[C@H](C=O)C[C@@H]3CCNC3=O)C4(C)C)[nH]c2c1C [Compound 18, (1R,2S,5S)-3-(6,7-dimethyl-1H-indole-2-carbonyl)-6,6-dimethyl-N—((S)-1-oxo-3-((S)-2-oxopyrrolidin-3-yl)propan-2-yl)-3-azabicyclo[3.1.0]hexane-2-carboxamide] | 15.3 | 38.8 | 33.1 | 301 | 76.1 | 65.9 | 33.6 | –
CC1(C)[C@@H]2[C@@H](C(=O)N[C@H](C=O)C[C@@H]3CCNC3=O)N(C(=O)c3cc4ccc(F)cc4[nH]3)C[C@@H]21 [Compound 19, (1R,2S,5S)-3-(6-fluoro-1H-indole-2-carbonyl)-6,6-dimethyl-N—((S)-1-oxo-3-((S)-2-oxopyrrolidin-3-yl)propan-2-yl)-3-azabicyclo[3.1.0]hexane-2-carboxamide] | 15.4 | 27.4 | 18 | 188 | 37.3 | 49.7 | 40.1 | –
CC1(C)[C@@H]2[C@@H](C(=O)N[C@H](C=O)C[C@@H]3CCNC3=O)N(C(=O)c3cc4c(F)cc(F)cc4[nH]3)C[C@@H]21 [Compound 20, (1R,2S,5S)-3-(4,6-difluoro-1H-indole-2-carbonyl)-6,6-dimethyl-N—((S)-1-oxo-3-((S)-2-oxopyrrolidin-3-yl)propan-2-yl)-3-azabicyclo[3.1.0]hexane-2-carboxamide] | 15.5 | 39.6 | 16.4 | 274 | 37.3 | 55 | 40.4 | –
CC1(C)[C@@H]2[C@@H](C(=O)N[C@H](C=O)C[C@@H]3CCNC3=O)N(C(=O)c3cc4ccc(Cl)c(F)c4[nH]3)C[C@@H]21 [Compound 21, (1R,2S,5S)-3-(6-chloro-7-fluoro-1H-indole-2-carbonyl)-6,6-dimethyl-N—((S)-1-oxo-3-((S)-2-oxopyrrolidin-3-yl)propan-2-yl)-3-azabicyclo[3.1.0]hexane-2-carboxamide] | 15.7 | 22.2 | 38 | 234 | 57.7 | 59.4 | 27.6 | –
CC1(C)[C@@H]2[C@@H](C(=O)N[C@H](C=O)C[C@@H]3CCNC3=O)N(C(=O)CC3CCCC(F)(F)C3)C[C@@H]21 (stereo partly drawn) [Compound 22, (1R,2S,5S)-3-(2-(3,3-difluorocyclohexyl)acetyl)-6,6-dimethyl-N—((S)-1-oxo-3-((S)-2-oxopyrrolidin-3-yl)propan-2-yl)-3-azabicyclo[3.1.0]hexane-2-carboxamide] | 15.8 | 24.4 | 10.5 | 123 | 37.1 | 28.4 | 27.7 | –
CC1(C)[C@@H]2[C@@H](C(=O)N[C@H](C=O)C[C@@H]3CCNC3=O)N(C(=O)Cc3ccccc3)C[C@@H]21 [Compound 23, (1R,2S,5S)-6,6-dimethyl-N—((S)-1-oxo-3-((S)-2-oxopyrrolidin-3-yl)propan-2-yl)-3-(2-phenylacetyl)-3-azabicyclo[3.1.0]hexane-2-carboxamide] | – | 33.8 | 22.6 | 126 | 49.7 | 30.5 | 23.3 | 15.8
CC1(C)[C@@H]2[C@@H](C(=O)N[C@H](C=O)C[C@@H]3CCNC3=O)N(C(=O)c3cc4cc(F)ccc4[nH]3)C[C@@H]21 [Compound 24, (1R,2S,5S)-3-(5-fluoro-1H-indole-2-carbonyl)-N-[(1S)-1-formyl-2-[(3S)-2-oxopyrrolidin-3-yl]ethyl]-6,6-dimethyl-3-azabicyclo[3.1.0]hexane-2-carboxamide] | 16.6 | 32.3 | 31.8 | 271 | 71.7 | 60.5 | 73.6 | –
CC1(C)[C@@H]2[C@@H](C(=O)N[C@H](C=O)C[C@@H]3CCCNC3=O)N(C(=O)c3cc4cccc(Cl)c4[nH]3)C[C@@H]21 [Compound 25, (1R,2S,5S)-3-(7-chloro-1H-indole-2-carbonyl)-6,6-dimethyl-N—((S)-1-oxo-3-((S)-2-oxopiperidin-3-yl)propan-2-yl)-3-azabicyclo[3.1.0]hexane-2-carboxamide] | 16.7 | 33.8 | 30.2 | 140 | 53.8 | 43 | 24 | –
O=C[C@H](C[C@@H]1CCNC1=O)NC(=O)[C@@H]1[C@H]2CCC[C@H]2CN1C(=O)c1cc2ccccc2[nH]1 [Compound 26, (1S,3aR,6aS)-2-(1H-indole-2-carbonyl)-N—((S)-1-oxo-3-((S)-2-oxopyrrolidin-3-yl)propan-2-yl)octahydrocyclopenta[c]pyrrole-1-carboxamide] | 16.8 | 42.7 | 20.7 | 173 | 37.8 | 28.6 | 93.7 | –
CC1(C)[C@@H]2[C@@H](C(=O)N[C@H](C=O)C[C@@H]3CCNC3=O)N(C(=O)c3cc4cc5c(cc4[nH]3)OCO5)C[C@@H]21 [Compound 27, (1R,2S,5S)-3-(5H-[1,3]dioxolo[4,5-f]indole-6-carbonyl)-6,6-dimethyl-N—((S)-1-oxo-3-((S)-2-oxopyrrolidin-3-yl)propan-2-yl)-3-azabicyclo[3.1.0]hexane-2-carboxamide] | 17.2 | 54.7 | 49 | 466 | 82.8 | 89.2 | 52.8 | –
COc1ccc(Cl)c2[nH]c(C(=O)N3C[C@H]4[C@@H]([C@H]3C(=O)N[C@H](C=O)C[C@@H]3CCNC3=O)C4(C)C)cc12 [Compound 28, (1R,2S,5S)-3-(7-chloro-4-methoxy-1H-indole-2-carbonyl)-6,6-dimethyl-N—((S)-1-oxo-3-((S)-2-oxopyrrolidin-3-yl)propan-2-yl)-3-azabicyclo[3.1.0]hexane-2-carboxamide] | 18 | 35.6 | 19.9 | 224 | 50.9 | 43.2 | 26.9 | –
CC1(C)[C@@H]2[C@@H](C(=O)N[C@H](C=O)C[C@@H]3CCNC3=O)N(C(=O)c3cc4cccc(C(F)(F)F)c4[nH]3)C[C@@H]21 [Compound 29, (1R,2S,5S)-6,6-dimethyl-N—((S)-1-oxo-3-((S)-2-oxopyrrolidin-3-yl)propan-2-yl)-3-(7-(trifluoromethyl)-1H-indole-2-carbonyl)-3-azabicyclo[3.1.0]hexane-2-carboxamide] | 18.3 | 47.4 | 53.5 | 296 | 93.9 | 87 | 35.2 | –
CC1(C)[C@@H]2[C@@H](C(=O)N[C@H](C=O)C[C@@H]3CCNC3=O)N(C(=O)c3cc4sccc4[nH]3)C[C@@H]21 [Compound 30, (1R,2S,5S)-6,6-dimethyl-N—((S)-1-oxo-3-((S)-2-oxopyrrolidin-3-yl)propan-2-yl)-3-(4H-thieno[3,2-b]pyrrole-5-carbonyl)-3-azabicyclo[3.1.0]hexane-2-carboxamide] | 18.6 | 24.5 | 26 | 239 | 49.7 | 43.8 | 51.1 | –
COc1cccc2[nH]c(C(=O)N3CC4(CC4)C[C@H]3C(=O)N[C@H](C=O)C[C@@H]3CCNC3=O)cc12 [Compound 31, (S)-5-(4-Methoxy-1H-indole-2-carbonyl)-N—((S)-1-oxo-3-((S)-2-oxopyrrolidin-3-yl)propan-2-yl)-5-azaspiro[2.4]heptane-6-carboxamide] | 18.9 | 31.7 | 14.2 | 188 | 49.3 | 22.2 | 34 | –
